# PMC9448382, “Fluorosulfate-containing pyrazole heterocycles as selective BuChE inhibitors: structure-activity relationship and biological evaluation for the treatment of Alzheimer’s disease” (Journal of Enzyme Inhibition and Medicinal Chemistry, 2022)
# Tests used:
# AChE from electric eel = target: T1, AChE from electric eel (Electrophorus electricus, UniProt O42275); test: EeAChE inhibition assay (Ellman's method); format: biochemical; details: read-out: AChE % inhibition at 20 µM, 20 µM, na = no inhibitory activity at 20 µM
# T1 construct: AChE from electric eel (C3389-500UN; Sigma); purchased Sigma C3389-500UN
# Description: According to Ellman's method, assays were carried out on AChE from electric eel (C3389-500UN; Sigma) and BuChE from horse serum (C4290-1KU; Sigma). On a final volume of 500 μL, the experiment was carried out in 48-well plates. EeAChE or eqBuChE, 0.036 U/mL, and 0.1 M pH 8 phosphate buffer were added to each well. At 37 °C, they were pre-incubated for 20 min at various chemical concentrations. […] Along with the enzymatic breakdown of ACh or BuCh, the DTNB creates the yellow anion 5-thio-2-nitrobenzoic acid. In a Biotek Synergy HTX Multi-Mode reader, changes in absorbance were detected at 410 nm. Inhibition curves were used to calculate the IC50 values (log inhibitor concentration vs percent of inhibition). The same conditions were used in a control experiment without the inhibitor, and the blank comprised buffer, DMSO, DTNB, and substrate.
# The IC50 values were calculated by SPSS 17.0.
# [1] = system: human normal liver cells LO2; test: Cytotoxicity MTT assay, L02 cells; details: 50 μM, 24 h
# Description: Human hepatoblastoma cells HepG2 and human normal liver cells LO2 cells were cultured at 37 °C in DMEM containing 10% foetal bovine serum, 100 U/mL penicillin, and […] streptomycin in a humidified incubator with 5% CO2. The methyl thiazolyl tetrazolium (MTT) assay was used to assess cell cytotoxicity. In a 96-well plate, HepG2 cells and LO2 cells were injected at 1 × 10^4 cells per well. The cells were treated with various substances that were diluted in DMEM for 24 h after being cultivated for 24 h. The cells were then treated for 4 h with 20 µL 0.5 mg/mL MTT reagent. The cell culture was withdrawn after 4 h, and 150 µL DMSO were added to dissolve the formazan. […] Three independent tests were used to calculate cell viability.
# Blank: cultured with fresh medium only.
# male ICR mice [2] = details: Day 3 to Day 14
# Description: The National Institutes of Health Guide for the Care and Use of Laboratory Animals was followed for all experiments. The Animal Care and Use Committee of Anhui Medical University adopted the Measures for the Care and Treatment of Laboratory Animals. In Anhui Medical University's animal centre, male ICR mice were employed (Hefei). […] Throughout all of the experiments, the room's ambient temperature and relative humidity (50%) remained constant. […] 8‒10 animals were used in each study group. The experimental time was from 08: 00 to 14: 00, and the mice were sacrificed by cervical dislocation shortly after the experiment ended. […] Aβ1–42 aggregation was induced by dissolving the Aβ1–42 peptide in DMSO as a stock solution of 5 mM and incubating it in saline at a final concentration of 2 mg/mL for 24 h at 37 °C.
# male ICR mice [3] = test: In vivo hepatotoxicity evaluation; parameters: species or system mouse
# Description: . Mice were fasted for 24 h. Intragastrically, the combination was given at a dose of 30 mg/kg body weight with the same quantity of vehicle (po). […] A biochemical analyser was used to process the data (Hitachi 7020, Japan). Mice were slaughtered and livers were obtained for immunohistochemical morphological evaluation after the last sample of postglobular blood. We isolated two 3-mm sections of each liver from the hilum to the edge of the left lateral lobe using an ultra-thin semi-automatic microtome (LeicaRM2245, Germany), immediately placed them in 10% buffered formaldehyde, fixed them for 2 days, and embedded them in paraffin blocks using a paraffin-embedding station (LeicaEG1150H, Germany). Subsequently, five […] sections were prepared from these paraffin sections, deparaffinized, stained with haematoxylin and eosin (HE) or using the periodic acid-Schiff glycogen staining method.
# PC12 cells = test: Neuroprotection assay against H2O2-induced PC12 cell injury; format: cell-based; details: Rattus norvegicus
# Description: PC12 cells were distributed at a density of 1 × 10^4 cells per well into 96-well microtiter plates. At time zero, cells were treated with a range of compounds K3 concentrations (1‒25 µM) and kept for 3 h after being incubated overnight. The media were then changed with new media containing the medication as well as a cytotoxic stimulus in the form of 100 µM H2O2, which was left for another 24 h. The MTT assay was used to determine cell viability after 24 h. In the cells, 20 µL of 0.5 mg/mL MTT reagent was applied and incubated for 4 h. The cell culture was removed after 4 h, and 150 µL DMSO was added to dissolve the formazan. The optical density was measured at 492 nm (OD492) on the Biotek Synergy HTX Multi-Mode reader. Results were adjusted considering OD measured in the blank.
# T1 sequence (O42275 24-633): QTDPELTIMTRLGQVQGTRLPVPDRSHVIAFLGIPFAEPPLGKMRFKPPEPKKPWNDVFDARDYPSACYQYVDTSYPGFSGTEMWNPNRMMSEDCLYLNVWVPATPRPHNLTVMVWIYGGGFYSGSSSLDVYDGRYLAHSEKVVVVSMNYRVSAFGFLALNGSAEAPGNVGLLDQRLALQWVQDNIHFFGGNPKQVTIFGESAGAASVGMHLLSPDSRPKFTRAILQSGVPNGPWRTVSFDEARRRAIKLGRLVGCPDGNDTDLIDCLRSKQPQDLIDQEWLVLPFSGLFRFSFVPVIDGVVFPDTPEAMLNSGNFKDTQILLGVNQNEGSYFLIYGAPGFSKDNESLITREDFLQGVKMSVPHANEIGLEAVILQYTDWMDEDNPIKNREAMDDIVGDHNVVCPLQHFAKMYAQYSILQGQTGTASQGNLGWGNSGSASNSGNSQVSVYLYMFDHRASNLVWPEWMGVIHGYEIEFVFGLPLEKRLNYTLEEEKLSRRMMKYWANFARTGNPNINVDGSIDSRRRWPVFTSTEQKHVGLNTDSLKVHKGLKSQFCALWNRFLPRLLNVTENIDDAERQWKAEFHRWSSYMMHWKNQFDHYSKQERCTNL
structure (smiles),measurement,setting,value
O=S(=O)(F)Oc1cc(-c2ccccc2)nn1-c1ccc(Cl)cc1 [Compound K3],inhibition at 20 µM,AChE from electric eel,26.3 ± 1.4%
same,cell survival rate,[1],94.4%
same,effect on body weight during administration,male ICR mice [2]; 10 mg/kg po,no effect on body weight increase
same,effect on Aβ1–42-induced cognitive dysfunction (MWM),"male ICR mice [2]; Aβ1–42 10 µg icv, K3 10 mg/kg po, donepezil 15 mg/kg po",significantly improved
same,serum ALT and AST levels vs vehicle group,"male ICR mice [3]; 30 mg/kg po, 8, 22 and 36 h after single dosing",No significant difference
same,liver histomorphology,"male ICR mice [3]; 30 mg/kg, 36 h after administration",no core necrosis or evident steatosis
same,viability at 5 µM,"PC12 cells; PC-12, 100 µM H2O2, compound 5 µM",55.9%
same,viability at 25 µM,"PC12 cells; PC-12, 100 µM H2O2, compound 25 µM",69.3%
